Experimental data reported in US20190185471A1, “SOLID FORMS OF VENETOCLAX AND PROCESSES FOR THE PREPARATION OF VENETOCLAX” (DR. REDDY'S LABORATORIES LIMITED, priority 2016, published 2019).

How the values were obtained:
[1] = stability of the crystalline form over time; assay type: physicochemical
Method: In an embodiment, drying crystalline Form RT2 of Venetoclax may be carried out at temperatures and times sufficient to achieve desired quality of product. Drying may be carried out at about 30° C. or above at which crystalline form RT2 is stable and for any time period required for obtaining a desired quality, such as from about 5 minutes to 10 hours or longer. Crystalline form RT2 is stable for 3 months period or longer.

[2] = stability of the solid form under hygroscopic conditions (higher relative humidity); assay type: physicochemical; conditions: higher relative humidity conditions of more than 60% RH
Source text: (§1) The present application provides a stable amorphous form of Venetoclax devoid of the problems indicated in the prior art and suitable for powder handling and downstream processes.

[3] = stability of the solid form under mechanical stress (grinding and milling); assay type: physicochemical
Source text: as §1

[4] = system: tumor cells that overexpress BCL-2; conditions: nonclinical studies; cited from earlier work

## CC1(C)CCC(CN2CCN(c3ccc(C(=O)NS(=O)(=O)c4ccc(NCC5CCOCC5)c([N+](=O)[O-])c4)c(Oc4cnc5[nH]ccc5c4)c3)CC2)=C(c2ccc(Cl)cc2)C1 [Crystalline form RT2]
[1]
  period for which the crystalline form is stable: ≥ 3 months

## CC1(C)CCC(CN2CCN(c3ccc(C(=O)NS(=O)(=O)c4ccc(NCC5CCOCC5)c([N+](=O)[O-])c4)c(Oc4cnc5[nH]ccc5c4)c3)CC2)=C(c2ccc(Cl)cc2)C1 [Amorphous form of Venetoclax]
[2]
  stability under hygroscopic conditions: stable
[3]
  stability under mechanical stress: highly stable

## CC1(C)CCC(CN2CCN(c3ccc(C(=O)NS(=O)(=O)c4ccc(NCC5CCOCC5)c([N+](=O)[O-])c4)c(Oc4cnc5[nH]ccc5c4)c3)CC2)=C(c2ccc(Cl)cc2)C1 [Venetoclax]
[4]
  cytotoxic activity: demonstrated cytotoxic activity
